Marks after values point to notes of the source that are not given here.
The substances below were run on P. aeruginosa ATCC 10145 (assay: CFU-assay, P. aeruginosa-cidal activity). Details: pH 5.0, 0.25% glucose.
Assay type: cell-based, Pseudomonas aeruginosa

Q: What does the source list for “RGSGSGHQGHSSSHGLGSGHRG (Peptide with reverse sequence to 18 amino acid peptide derived from human hornerin (revHR 1-18))”?
A: MBC90: <0.019 µg/mL; MBC100: 0.075 µg/mL

Q: For “GRHGSGGGHSSSHGGHGSGSGR (Modified peptide derived from human hornerin (HR 1-18 L-G/Q-G))”, which MBC90 is on record?
A: Its MBC90 is 0.038 µg/mL.

Q: What about the MBC100 of the same substance?
A: Its MBC100 is 0.15 µg/mL.

Q: Which MBC90 does the source give for “GRHGGGGGHGGGHGGHGGGGGR (Modified peptide derived from human hornerin (HR 1-18 L-G/Q-G/6S-6G))” here?
A: The MBC90 was 0.038 µg/mL.

Q: What about the MBC100 of the same substance?
A: The MBC100 was 0.15 µg/mL.

Q: Which MBC90 does the source give for “SLSSGHGSGHGHQRGGHRSGSG (Peptide with scrambled amino acid sequence of a 18 amino acid peptide derived from human hornerin (scrHR 1-18))” here?
A: Its MBC90 is under 0.019 µg/mL.

Q: And the MBC100?
A: The MBC100 was 0.075 µg/mL.

Same assay, conditions: pH 5.5, 0.25% glucose

Q: With “HGHGH (Synthetic cationic intrinsically disordered antimicrobial peptide (GH5))” as the substance, how does the MBC90 read?
A: Its MBC90 is 6.0 µM.

Q: And the MBC100?
A: The MBC100 was 138 µM.

Q: How did the MBC90 turn out when GOOGGOGGOGOGO [Orn-GR13] was run?
A: The MBC90 was 0.034 µM.

Q: And the MBC100?
A: The MBC100 was 1.1 µM.

Q: With “LGHSSSHGQHGSGSGRSSSRGPYESRLGH [HR 1-36 HRNR2663-2690]” as the substance, how does the MBC90 read?
A: Its MBC90 is 0.15 µg/mL.

Q: What about the MBC100 of the same substance?
A: The MBC100 was 2.35 µg/mL.

Q: For “GHHGGHGGHGHGH (Synthetic cationic intrinsically disordered antimicrobial peptide (GH13))”, which MBC90 is on record?
A: The MBC90 was 0.030 µM.

Q: What about the MBC100 of the same substance?
A: The MBC100 was 0.12 µM.

Q: How did the MBC90 turn out when “RHGSGLGHSSSH (Peptide derived from human hornerin (HR 1-27 HRNR 2657-2668)) [HR 1-27 HRNR2657-2668]” was run?
A: Its MBC90 is 75-100* μg/ml.

Q: With “HTHSGHTHGQARSQHGESESIVHER (Peptide derived from human filaggrin-2 (FLG-2 1742-1766)) [FLG-21742-1766]” as the substance, how does the MBC90 read?
A: Its MBC90 is 0.038 µg/mL.

Q: What about the MBC100 of the same substance?
A: The MBC100 was 0.15 µg/mL.

Q: With “HGSGLGHSSSHGQHGSGSGR (Peptide derived from human hornerin (HR 1-8 HRNR2658-2677))” as the substance, how does the MBC90 read?
A: The MBC90 was 4.7 µg/mL.

Q: What about the MBC100 of the same substance?
A: Its MBC100 is over 300 µg/mL.

Q: “HTHSGHTHSQARSQHGESESTVHKR (Peptide derived from human filaggrin-2 (FLG-2 1894-1918)) [FLG-21894-1918]” was tested. Which MBC90 did it give?
A: Its MBC90 is 0.038 µg/mL.

Q: What about the MBC100 of the same substance?
A: Its MBC100 is 0.3 µg/mL.

Q: How did the MBC90 turn out when “HGQSTQRGSRTAGRRGSGH (Peptide derived from human filaggrin-2 (FLG-2 2087-2105)) [FLG-22087-2105]” was run?
A: Its MBC90 is 0.075 µg/mL.

Q: What about the MBC100 of the same substance?
A: The MBC100 was 1.18 µg/mL.

Q: Which MBC90 does the source give for “HGHGHGHGH (Synthetic cationic intrinsically disordered antimicrobial peptide (GH9))” here?
A: Its MBC90 is 0.18 µM.

Q: What about the MBC99 of the same substance?
A: Its MBC99 is “MBC99: 99 μM”.

Q: And the MBC100?
A: The MBC100 was >400, μM.

Q: How did the MBC90 turn out when “RGRGRGR (Synthetic cationic intrinsically disordered antimicrobial peptide (GR7))” was run?
A: The MBC90 was 0.31 µM.

Q: What about the MBC100 of the same substance?
A: The MBC100 was 2.8 µM.

Q: Which MBC90 does the source give for “HTHSGHTHGQSGSQHGESESIIHDR (Peptide derived from human filaggrin-2 (FLG-2 1515-1539)) [FLG-21515-1539]” here?
A: The MBC90 was 0.075 µg/mL.

Q: And the MBC100?
A: Its MBC100 is 0.59 µg/mL.

Q: How did the MBC90 turn out when “QGSHHEQSVNRSGHSGSHHSHTTSQGR (Peptide derived from human filaggrin (FLG 528-554)) [FLG528-554]” was run?
A: Its MBC90 is 0.15 µg/mL.

Q: And the MBC100?
A: Its MBC100 is 0.59 µg/mL.

Q: “RGRGR (Synthetic cationic intrinsically disordered antimicrobial peptide (GR5))” was tested. Which MBC90 did it give?
A: The MBC90 was 6.1 µM.

Q: What about the MBC100 of the same substance?
A: Its MBC100 is over 500 µM.

Q: For “RGSRSGQSSRGERR (Modified peptide derived from human hornerin (HR 1-11s 2H2R-14))”, which MBC90 is on record?
A: Its MBC90 is 0.15 µg/mL.

Q: What about the MBC100 of the same substance?
A: The MBC100 was 4.7 µg/mL.

Q: Which MBC90 does the source give for “RGSRSGQSSRGERRGSSSGSSSR (Modified peptide derived from human hornerin (HR 1-11 3H3R))” here?
A: Its MBC90 is 0.3 µg/mL.

Q: What about the MBC100 of the same substance?
A: Its MBC100 is 9.375* μg/ml.

Q: For “GRHGSGLGHSSSH (Peptide derived from human hornerin (HR 1-37 HRNR 2656-2668)) [HR 1-37 HRNR2656-2668]”, which MBC90 is on record?
A: The MBC90 was 9.38 µg/mL.

Q: What about the MBC100 of the same substance?
A: Its MBC100 is over 300 µg/mL.

Same assay, conditions: pH 5.5, 1% TSB

Q: What does the source list for “HGSSSGSSSHYGQHGSGSR (Peptide derived from human hornerin (HR 1-4 HRNR 2619-2637)) [HR 1-4 HRNR2619-2637]”?
A: MBC90: 150 µg/mL; MBC100: >300 µg/mL

Q: Which MBC100 does the source give for “GRHGSGSGQSSSYGPYGSGSGWSSSRGPY (Peptide derived from human hornerin (HRNR 1952-1980)) [HRNR1952-1980]” here?
A: Its MBC100 is over 300 µg/mL.

Q: With “HGSRSGQSSRGERGGSSSGSSSH (Modified peptide derived from human hornerin (HR 1-11 H2-G H2619G))” as the substance, how does the MBC90 read?
A: The MBC90 was 75 µg/mL.

Q: What about the MBC100 of the same substance?
A: Its MBC100 is over 300 µg/mL.

Q: For “HGSGLGHSSSHGQHGSGSGR (Peptide derived from human hornerin (HR 1-8 HRNR2658-2677))”, which MBC100 is on record?
A: The MBC100 was over 300 µg/mL.

Q: Which results are given for “GSGSRQSPSYGRHGSGSGRSSSSGQH (Peptide derived from human hornerin (HR 2-11 HRNR 1132-1157)) [HR 2-11 HRNR1132-1157]”?
A: MBC90: 37.5 µg/mL; MBC100: >300 µg/mL

Q: “GSGSRQSSSYGRHGSGSGR (Modified peptide derived from human hornerin (HR 2-4S HRNR 1132-1150 P1139S)) [HR 2-4S HRNR1132-1150 P1139S]” was tested. Which MBC90 did it give?
A: The MBC90 was 150 µg/mL.

Q: What about the MBC100 of the same substance?
A: Its MBC100 is over 300 µg/mL.

Q: With “GSGSRQSPSRGRHGSGSGR (Modified peptide derived from human hornerin (HR 2-4R HRNR 1132-1150 Y1141R)) [HR 2-4R HRNR1132-1150 Y1141R]” as the substance, how does the MBC100 read?
A: Its MBC100 is over 300 µg/mL.

Q: How did the MBC90 turn out when “GSGSRQSLSYGRHGSGSGR (Modified peptide derived from human hornerin (HR 2-4L HRNR 1132-1150 P1139L)) [HR 2-4L HRNR1132-1150 P1139L]” was run?
A: Its MBC90 is 75 µg/mL.

Q: And the MBC100?
A: Its MBC100 is over 300 µg/mL.

Q: “GRHGSGSGQSSSYSPYGSGSGWSSSRGPY (Peptide derived from human hornerin (HRNR 2422-2450)) [HRNR2422-2450]” was tested. Which MBC100 did it give?
A: Its MBC100 is over 300 µg/mL.

Q: How did the MBC90 turn out when “HGSRSGQSSRGERHGSSSGSSSG (Modified peptide derived from human hornerin (HR 1-11 H3-G H2628G))” was run?
A: Its MBC90 is 18.75 µg/mL.

Q: What about the MBC100 of the same substance?
A: The MBC100 was over 300 µg/mL.

Q: With “SRQSPSYGRHGSGR (Modified peptide derived from human hornerin (HR 2-15 HRNR 1136-1150 S1148R)) [HR 2-15 HRNR1136-1150 S1148R]” as the substance, how does the MBC90 read?
A: The MBC90 was 75 µg/mL.

Q: What about the MBC100 of the same substance?
A: Its MBC100 is over 300 µg/mL.

Q: Which MBC90 does the source give for “HGSGSGQSSRGERHGSSSGSSSH (Modified peptide derived from human hornerin (HR 1-11 R1-G R2609G))” here?
A: The MBC90 was >300* μg/ml.

Q: And the MBC100?
A: The MBC100 was >300* μg/ml.

Q: For “HGSRSGQSSRGEGHGSSSGSSSH (Modified peptide derived from human hornerin (HR 1-11 R3-G R2618G))”, which MBC90 is on record?
A: Its MBC90 is 75 µg/mL.

Q: What about the MBC100 of the same substance?
A: The MBC100 was over 300 µg/mL.

Q: What does the source list for “RQSPSYGRHGSGSGR (Peptide derived from human hornerin (HR 2-14 HRNR 1136-1150)) [HR 2-14 HRNR1136-1150]”?
A: MBC90: 300 µg/mL; MBC100: >300 µg/mL

Q: What does the source list for “HGSRSGQSSGGERHGSSSGSSSH (Modified peptide derived from human hornerin (HR 1-11 R2-G R2615G))”?
A: MBC90: 75 µg/mL; MBC100: >300 µg/mL

Same assay, conditions: pH 7.0, 0.25% glucose

Q: How did the MBC90 turn out when “GRHGSGGGHSSSHGGHGSGSGR (Modified peptide derived from human hornerin (HR 1-18 L-G/Q-G))” was run?
A: Its MBC90 is over 300 µg/mL.

Q: And the MBC100?
A: Its MBC100 is over 300 µg/mL.

Q: Which results are given for “GRHGGGGGHGGGHGGHGGGGGR (Modified peptide derived from human hornerin (HR 1-18 L-G/Q-G/6S-6G))”?
A: MBC90: >300 µg/mL; MBC100: >300 µg/mL

From US11479587B2, “Cationic intrinsically disordered antimicrobial peptides” (priority 2016, dated 2022)
